Measured values reported in patent publication US5616615A, “Enaminone esters” (priority 1995, dated 1997).
Where two headings read alike, the source gives them in different places.

Legend:
seizures = experiment: Anticonvulsant evaluation (ASP phase I / overall); format: in vivo, mice; conditions: Mus musculus, ip; Phase I; read-out: ASP Classification
Outline: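 Male Carworth Farms #1 mice; maximal electroshock seizures elicited by 60-cycle AC, 50 mA, 0.2 s via corneal electrodes after a drop of 0.9% saline in the eye. Animals observed for 30 minutes.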

in vivo [1] = conditions: mouse, in vivo; for TPE (time of peak effect), toxicity: ip
Protocol: The first phase of the ADD Program involved performing tests on male Carworth Farms #1 mice. […] Three tests were performed:
In the second phase of the ADD program protocol, estimates of anticonvulsant activity and neurotoxicity are quantified. The median effective dose (ED50) in the MES, sc Met, and rotorod test is determined. In the case of a compound with apparent activity in only one anticonvulsant test, testing is carried out in the other up to, and in some cases beyond, doses which produce neurological deficit. Compounds which fail to produce minimal neurological deficit are tested whenever possible to doses ten times their lowest anticonvulsant ED50. […] The rotorod ED50 is determined at the time of the peak neurologic deficit.

[2] = test system: Maximal electroshock seizures; experiment: MES maximal electroshock seizure test, mice ip; format: in vivo; set-up: TPE (time of peak effect), activity: unit not given here; conditions: ip; for responders at 100 mg/kg / responders at 300 mg/kg: Mus musculus; for responders at 100 mg/kg: read-out: MES, animals protected/tested (converted); for responders at 300 mg/kg: read-out: MES, animals protected/tested
Protocol: Three tests were performed:
1. MES--Electroshock Seizure Test
(§1) Maximal electroshock seizures are elicited with a 60-cycle alternating current of 50 mA intensity (5-7 times that necessary to elicit minimal electroshock seizures) delivered via corneal electrodes for 0.2 seconds. A drop of 0.9% saline is instilled in the eye prior to application of the electrodes in order to […].

[3] = test system: Subcutaneous Pentylenetetrazol seizure; experiment: sc Met subcutaneous pentylenetetrazol (Metrazol) seizure test, mice; format: in vivo; conditions: Mus musculus, sc, read-out: scMet, animals protected/tested (converted)
in vivo [4] = conditions: rat, po
Source text: (§2) This oral screen is designated as phase VI.

[5] = test system: Maximal electroshock seizures; experiment: Phase VI oral MES test, rats; format: in vivo; conditions: oral; for responders at 50 mg/kg: Rattus norvegicus, read-out: MES, animals protected/tested (converted); for ED50: Phase VI, rat
Source text: as §1, §2

Corneal Kindled rats = test system: Corneal Kindled rats; set-up: ED50 (reduction from Stage 5 to Stage 4): unit not given beside the values; conditions: cited from earlier work; for ED50 (reduction from Stage 5 to Stage 4): data provided by the ADD Program

## CC1(C)CC(=O)C=C(Nc2ccc(N)cc2)C1 [Compound 142]
seizures
  minimal effective dose: < 100 mg/kg
In vivo [1]; 100 mg/kg
  Tox (rotorod), animals toxic/tested: 0/2
[2]; 0.25 h, Phase II, 0.25 h
  responders at 100 mg/kg: 50%
[2]; 0.5 h, 30 min
  responders at 100 mg/kg: 0%
  responders at 300 mg/kg: 100%
[2]; 1 h, Phase II, 1.00 h
  responders at 100 mg/kg: 50%
[2]; 4 h, 4 h
  responders at 100 mg/kg: 33.3%
  responders at 300 mg/kg: 100%
[3]; 0.5 h, 30 min
  responders at 100 mg/kg: 0%
  responders at 300 mg/kg: 0%
[3]; 4 h, 4 h
  responders at 100 mg/kg: 0%
  responders at 300 mg/kg: 0%
In vivo [4]; 50 mg/kg
  Tox, animals toxic/tested: 0/4
[5]; 0.5 h, 0.50 h
  responders at 50 mg/kg: 0%
[5]; 0.25 h
  responders at 50 mg/kg: 0%
[5]; 1.00 h
  responders at 50 mg/kg: 0%
[5]; 2.00 h
  responders at 50 mg/kg: 0%
[5]; 4.00 h
  responders at 50 mg/kg: 25%

## NC(=O)N1c2ccccc2C=Cc2ccccc21 [carbamazepine, reference compound]
In vivo [1]
  TPE (time of peak effect), toxicity: 0.5
[2]; Phase II
  TPE (time of peak effect), activity: 0.5
Corneal Kindled rats; comparative commercial product
  ED50, corneal kindling: 28.90 mg/kg
Corneal Kindled rats; po, 1 h, 30 min
  ED50 (reduction from Stage 5 to Stage 4): 28.90
[5]
  ED50: 8.5 mg/kg

## O=C1CN=C(c2ccccc2Cl)c2cc([N+](=O)[O-])ccc2N1 [clonazepam]
Corneal Kindled rats; po, 1 h, 30 min
  ED50 (reduction from Stage 5 to Stage 4): 0.70

## O=C1NC(=O)C(c2ccccc2)(c2ccccc2)N1 [phenytoin, reference compound]
In vivo [1]
  TPE (time of peak effect), toxicity: 2
[2]; Phase II
  TPE (time of peak effect), activity: 2
Corneal Kindled rats; ip, 0.5 h
  ED50 (reduction from Stage 5 to Stage 4): 48.25
Corneal Kindled rats; oral route
  activity in corneal kindling: inactive
Corneal Kindled rats; po, 0.5 h
  ED50 (reduction from Stage 5 to Stage 4): > 100
In vivo [4]
  TD50: > 3000 mg/kg
[5]
  ED50: 29.8 mg/kg
